Test results reported in US7687470B2, “Avermectin and avermectin monosaccharide substituted in the 4″- and 4″ position respectively” (Syngenta Crop Protection, Inc., priority 2005, dated 2010).

System: Diabrotica balteata
Assay: Activity against Diabrotica balteata (sprayed maize seedlings)
Assay type: in vivo
Conditions: 12.5 ppm, spray on maize seedlings, second-stage larvae, after 6 days; b227: good activity corresponding to a mortality of at least 50 to 60%
Protocol: Maize seedlings are sprayed with an aqueous emulsion spray liquor which comprises 12.5 ppm of active compound and, after the spray coating has dried on, populated with 10 larvae of the second stage of Diabrotica balteata and then introduced into a plastic container. After 6 days, the reduction in the population in percent (% activity) is determined by comparing the dead larvae between the treated and the untreated plants.

CCC(C)C1OC2(C=CC1C)CC1CC(CC=C(C)C(OC3CC(OC)C(OC4CC(OC)C(C)(NC=O)C(C)O4)C(C)O3)C(C)C=CC=C3COC4C(O)C(C)=CC(C(=O)O1)C34O)O2 (stereo not shown) [Table A8]
activity in this test (in words): good activity
